The values that follow are results of earlier work, collected in patent publication US6656915B1, “Inhibiting T-cell proliferation” (Biocryst Pharmaceuticals, Inc., priority 1999, dated 2003).

Read-outs that look alike come from different tables or passages of the source.

The subject of series [1] is human T-cells (CCRF-CEM and Molt-4 cells). To be noted: given with 2′-deoxyguanosine; CCRF-CEM and Molt-4 cells in cultures.
Series [2] relates to peripheral blood lymphocytes. To be noted: rats.
In series [3] the test system is T-cells. The settings on record: rats; given with 2′-deoxyguanosine.
The test system of series [4] is peripheral blood lymphocytes. The settings on record: dogs.
Series [5] addresses PNP (Homo sapiens, UniProt P00491). The settings on record: humans; indicating effective inhibition of PNP.
Series [6] deals with T-cells. The settings on record: humans; PNP inhibitor without exogenous 2′-deoxyguanosine.
For series [7] the following is noted: upon being administered to a host, alone.
Setting [8] is: 2′-deoxyguanosine alone, without PNP inhibition.

Chain of PNP (P00491 whole entry): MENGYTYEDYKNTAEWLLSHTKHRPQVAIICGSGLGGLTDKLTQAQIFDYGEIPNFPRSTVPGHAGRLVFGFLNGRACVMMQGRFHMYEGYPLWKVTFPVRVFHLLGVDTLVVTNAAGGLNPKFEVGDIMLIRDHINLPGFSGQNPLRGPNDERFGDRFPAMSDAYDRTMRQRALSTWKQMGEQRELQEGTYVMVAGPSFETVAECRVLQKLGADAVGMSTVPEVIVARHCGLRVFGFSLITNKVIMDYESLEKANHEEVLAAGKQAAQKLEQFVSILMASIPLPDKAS

For `Nc1nc2nc(N)[nH]c2c(=O)[nH]1` [8-Aminoguanine], in series [1], the “proliferation of human T-cells” value is listed as “inhibits the proliferation”.
For `Nc1nc2c(nc(N)n2[C@@H]2O[C@H](CO)[C@@H](O)[C@H]2O)c(=O)[nH]1` [8-Aminoguanosine, reference compound], the peripheral blood lymphocytes result in series [2] (given with 2′-deoxyguanosine) and in series [4] (given with 2′-deoxyguanosine) was “profound fall” throughout. Moreover, in series [3], the “levels of 2′-deoxyguanosine triphosphate (dGTP) in T-cells” value is “increased levels”.
For `Nc1nc2c(Cc3cccnc3)c[nH]c2c(=O)[nH]1` [9-(3-Pyridylmethyl)-9-deazaguanine], in series [5], the plasma inosine levels entry is recorded as “increases plasma inosine levels”. Moreover, the T-cell counts result in series [6] is given as “did not reduce T-cell counts”.
Consider `Nc1nc2c(ncn2[C@H]2C[C@H](O)[C@@H](CO)O2)c(=O)[nH]1` [2′-deoxyguanosine], for which the “degradation of exogenous 2′-deoxyguanosine” value in series [7] was “rapidly degrades”. The “cell counts (lymphopenia)” value in series [2] (setting [8]) and in series [4] (setting [8]) was “did not significantly decrease cell counts” each time.
